Laboratory results: patent publication US20240158369A1, “PYRIMIDINE COMPOUND AS WEE-1 INHIBITOR” (WIGEN BIOMEDICINE TECHNOLOGY (SHANGHAI) CO., LTD., priority 2021, published 2024)

Molecular target: recombinant protein Wee-1 (Homo sapiens (Human), UniProt P30291)
Experiment: HTRF assay for inhibiting enzymatic activity of recombinant protein Wee-1
Assay type: biochemical
Details: compounds up to 200 nM, read-out: (IC50) Inhibitory activity against recombinant protein Wee-1
Procedure: The inhibitory effect of the compounds on the enzyme activity of recombinant protein Wee-1 was determined by HTRF. The procedures are as follows:
After DMSO or serially diluted compounds (up to 200 nM, 1:5 diluted) and recombinant proteins were co-incubated in a kinase buffer at 37° C. for 30 min before Fluorescein-PolyGAT and ATP were added, and the reaction was initiated by addition of a substrate. After incubation at room temperature for 90 min, an antibody and a detection solution were added, and after further incubation at room temperature for 60 min, fluorescence values were detected (excitation wavelength: 340 nm, emission wavelengths: 495 and 520 nm). The 520 nm/495 nm fluorescence intensity ratio value was calculated, and compared with that of the DMSO group, and then the inhibition percentages and IC50 values of the compounds were calculated.

Sequence of recombinant protein Wee-1 (P30291 whole entry): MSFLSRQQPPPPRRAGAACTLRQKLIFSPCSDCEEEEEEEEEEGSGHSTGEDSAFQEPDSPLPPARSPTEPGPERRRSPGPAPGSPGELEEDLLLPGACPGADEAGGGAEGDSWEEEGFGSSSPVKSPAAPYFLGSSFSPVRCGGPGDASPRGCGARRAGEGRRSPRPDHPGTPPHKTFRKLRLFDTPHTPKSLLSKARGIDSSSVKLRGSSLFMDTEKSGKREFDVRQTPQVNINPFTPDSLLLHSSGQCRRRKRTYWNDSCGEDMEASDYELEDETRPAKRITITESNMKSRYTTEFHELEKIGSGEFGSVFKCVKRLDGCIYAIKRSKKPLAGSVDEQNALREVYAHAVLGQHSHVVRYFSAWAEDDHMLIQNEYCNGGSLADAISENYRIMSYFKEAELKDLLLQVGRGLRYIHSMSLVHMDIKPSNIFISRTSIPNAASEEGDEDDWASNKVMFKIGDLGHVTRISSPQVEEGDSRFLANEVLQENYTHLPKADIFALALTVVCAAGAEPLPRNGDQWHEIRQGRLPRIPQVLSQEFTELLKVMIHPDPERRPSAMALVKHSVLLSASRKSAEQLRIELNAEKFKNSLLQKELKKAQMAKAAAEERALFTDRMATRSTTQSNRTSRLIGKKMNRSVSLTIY

## CCc1cc(Nc2ncc(C#N)c(Nc3cccc(N=S4(=O)CCCC4)n3)n2)cc2c1CCN(C)C2 [Compound 160]
  IC50: ≤ 10 nM

## CN(C)C1CCCc2ccc(Nc3ncc(C#N)c(Nc4cccc(N=S(C)(C)=O)n4)n3)cc2C1 (centres unmarked) [Compound 53]
  IC50: ≤ 10 nM

## CN1CCc2ccc(Nc3ncc(C#N)c(Nc4nc(N=S(C)(C)=O)cc5c4CCN5)n3)cc2C1 [Compound 82]
  IC50: ≤ 10 nM

## CN1CCc2c(cc(Nc3ncc(C#N)c(Nc4ccc(F)c(N=S(C)(C)=O)n4)n3)cc2C2=CCCC2)C1 [Compound 100]
  IC50: ≤ 10 nM

## CN1CCc2ccc(Nc3ncc(C#N)c(-n4ccc5c(N=S(C)(C)=O)cccc54)n3)cc2C1 [Compound 76]
  IC50: ≤ 10 nM

## CN1CCc2c(CC3CCC3)cc(Nc3ncc(C#N)c(Nc4cccc(N=S(C)(C)=O)n4)n3)cc2C1 [Compound 125]
  IC50: ≤ 10 nM

## CCc1cc(Nc2ncc(C#N)c(Nc3cncc(N=S(C)(C)=O)n3)n2)cc2c1CCN(C)C2 [Compound 142]
  IC50: ≤ 10 nM

## CN1CCc2ccc(Nc3ncc(C#N)c(Nc4cc5ccccc5c(N=S(C)(C)=O)n4)n3)cc2C1 [Compound 71]
  IC50: ≤ 10 nM

## CN1CCc2c(cc(Nc3ncc(C#N)c(Nc4cccc(N=S(C)(C)=O)n4)n3)cc2-c2ccoc2)C1 [Compound 114]
  IC50: ≤ 10 nM

## CN1CCc2c(cc(Nc3ncc(C#N)c(Nc4cccc(N=S(C)(C)=O)n4)n3)cc2C(F)F)C1 [Compound 21]
  IC50: ≤ 10 nM

## CN1CCc2c(cc(Nc3ncc(C#N)c(Nc4ccc(F)c(N=S(C)(C)=O)n4)n3)cc2C2CCCC2)C1 [Compound 99]
  IC50: ≤ 10 nM

## CC(C)c1cc(Nc2ncc(C#N)c(Nc3cccc(N=S(C)(C)=O)n3)n2)cc2c1C1(CC1)CN(C)C2 [Compound 33]
  IC50: ≤ 10 nM

## CN1CCc2ccc(Nc3ncc(C#N)c(Nc4cccc(N=S(C)(C)=O)n4)n3)cc2C12CC2 [Compound 103]
  IC50: ≤ 10 nM

## CS(C)(=O)=Nc1cccc(Nc2nc(Nc3ccc4c(c3)CN(CCO)CC4)ncc2C#N)n1 [Compound 48]
  IC50: ≤ 10 nM

## Cc1cc(Nc2ncc(C#N)c(Nc3cc(F)cc(N=S(C)(C)=O)n3)n2)cc2c1CCN(C)C2 [Compound 74]
  IC50: ≤ 10 nM

## CN1CCc2c(Cl)cc(Nc3ncc(C#N)c(Nc4cccc(N=S(C)(C)=O)n4)n3)cc2C1 [Compound 26]
  IC50: ≤ 10 nM

## Cc1cc(Nc2ncc(C#N)c(Nc3cccc(N=S(C)(C)=O)n3)n2)cc2c1C(C)(C)CN(C)C2 [Compound 36]
  IC50: ≤ 10 nM

## CN1Cc2ccc(Nc3ncc(C#N)c(Nc4cccc(N=S(C)(C)=O)n4)n3)cc2C1 [Compound 59]
  IC50: ≤ 10 nM

## CN1CCc2ccc(Nc3ncc(C#N)c(Nc4cc5c(c(N=S(C)(C)=O)n4)CCC5)n3)cc2C1 [Compound 83]
  IC50: ≤ 10 nM

## CN1CCc2ccc(Nc3ncc(C#N)c(Nc4ccnc(N=S(C)(C)=O)n4)n3)cc2C1 [Compound 69]
  IC50: ≤ 10 nM

## CN1CCc2ccc(Nc3ncc(C#N)c(Nc4cccc(N=S(C)(C)=O)n4)n3)cc2C1(C)C [Compound 104]
  IC50: ≤ 10 nM

## CN1CCc2c(cc(Nc3ncc(C#N)c(Nc4cncc(N=S(C)(C)=O)n4)n3)cc2C2CC2)C1 [Compound 138]
  IC50: ≤ 10 nM

## CN1CCc2c(cc(Nc3ncc(C#N)c(Nc4ccc(F)c(N=S(C)(C)=O)n4)n3)cc2N2CCC2)C1 [Compound 96]
  IC50: ≤ 10 nM

## CN1CCc2c(CCCN)cc(Nc3ncc(C#N)c(Nc4cccc(N=S(C)(C)=O)n4)n3)cc2C1 [Compound 136]
  IC50: ≤ 10 nM

## COCCN1CCc2ccc(Nc3ncc(C#N)c(Nc4cccc(N=S(C)(C)=O)n4)n3)cc2C1 [Compound 49]
  IC50: ≤ 10 nM

## CN1CCc2ccc(Nc3ncc(C#N)c(Nc4nc(N=S(C)(C)=O)cc5[nH]ccc45)n3)cc2C1 [Compound 81]
  IC50: ≤ 10 nM

## CN1CCc2ccc(Nc3ncc(C#N)c(Nc4nccc(N=S(C)(C)=O)n4)n3)cc2C1 [Compound 70]
  IC50: ≤ 10 nM

## CCc1cc(Nc2ncc(C#N)c(Nc3cccc(N=S(C)(C)=O)n3)n2)cc2c1C1(CC1)CN(C)C2 [Compound 31]
  IC50: ≤ 10 nM

## CN1CCc2c(CN)cc(Nc3ncc(C#N)c(Nc4cccc(N=S(C)(C)=O)n4)n3)cc2C1 [Compound 134]
  IC50: ≤ 10 nM
